# Reference: patent US5441883A, “A3 adenosine receptor, DNA, and uses” (priority 1993, dated 1995)
# Where two headings read alike, the source gives them in different places.
# Experiments:
# A3 adenosine receptor [1] = biological target: T1, A3 adenosine receptor (Rattus norvegicus, UniProt P28647); assay: biochemical; type: binding; details: for inhibition at 1000 µM: read-out: inhibition of [125I]APNEA binding; for inhibition at 100 µM: read-out: inhibition of specific [125I]APNEA binding; for pharmacological profile of inhibition of [125I]APNEA binding: rank order; for IC50: 0.5 nM [125I]APNEA
# T1 sequence (P28647 1-320): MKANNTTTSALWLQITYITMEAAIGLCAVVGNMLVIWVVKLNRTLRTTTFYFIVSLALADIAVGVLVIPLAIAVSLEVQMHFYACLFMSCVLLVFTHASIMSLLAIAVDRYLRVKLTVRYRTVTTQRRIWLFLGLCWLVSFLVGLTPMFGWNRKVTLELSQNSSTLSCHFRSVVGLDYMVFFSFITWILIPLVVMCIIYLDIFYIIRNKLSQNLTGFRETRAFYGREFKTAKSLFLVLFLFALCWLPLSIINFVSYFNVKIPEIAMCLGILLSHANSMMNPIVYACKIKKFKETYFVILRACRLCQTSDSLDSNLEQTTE
# Procedure: FIGS. 4A and 4B illustrates competitive binding assays using stably transfected CHO cell membrane preparations.
# (§1) Cell membranes were prepared as follows. COS-7 cells (transient expressors) were harvested 48 hrs after transfection, whereas CHO cells (stable expressors) were grown to confluence in 150 mm plates. Cells were washed twice with ice-cold HOB buffer [15 mM Tris-HCl (pH 7.4), 5 mM MgCl2, 1 mM EDTA] and scraped off plates with a rubber policeman. Cells were then collected by centrifugation at 1,200 rpm (xx g), resuspended in HOB buffer, transferred to a Dounce homogenizer on ice, and homogenized for 20 sec with a CorTarge homogenizer (Eberbach Inc., Ann Arbor, Mich.) at the #3 speed setting. The homogenate was then centrifuged at 2,000 rpm (xx g) for 10 min at 4° C. The supernatant was saved and the pellet resuspended in HOB buffer and subjected to a second round of homogenation. The second homogenate was centrifuged at 2000 rpm (xx g) for 10 min and the pellet was discarded. Supernatants were pooled and centrifuged at 34,000 rpm (xx g) for 45 min. These crude membrane pellets were resuspended in TEM buffer [50 mM Tris-HCl (pH 7.4), 5 mM MgCl2, 1 mM EDTA]. Adenosine deaminase (Sigma, St Louis, Mo.) was added to the membrane suspensions to a concentration of 2 Units/ml and incubated at 37° C. for 30 min. The membrane suspension was subsequently recentrifuged at 34,000 rpm (xx g) for 45 min. The resulting pellet was resuspended in TEM buffer at a protein concentration of about 1 mg/ml and stored in small aliquots at -70° C. The protein concentration was measured according to the method of Lowry et al. (1954, J. Biol. Chem. 207: 1-XXX) using bovine serum albumin as a standard.
# Radioligand binding assays were carried out in duplicate in 500 μl of a solution containing (at final concentrations) 50 mM Tris-HCl (pH 7.4), 5 mM MgCl2, 1 mM EDTA, 0.025 % ascorbic acid, radioligands, and appropriate drugs. […] ([aH]XAC), [^3 H]-labeled 2-[4-(2-[(4-aminophenyl)methylcarbobylamino]ethylaminocarbonyl)ethyl)phenyl]ethylamino-5'-N-ethylcarboxamidoadenosine ([^3 H]PAPA-APEC), and [^3 H]-labeled [2-(4-(2-carboxyethyl)phenylethyamino)5'-N-ethylcarboxamidoadenosine ([^3 H]CGS21680). Receptor binding was initiated by the addition of membrane preparations in an amount equivalent to 20-100 μg protein, and carried out at 37° C. for 1 hr. Nonspecific binding was determined in the presence of 10 μM R-N^6 -phenyl-2-propyladenosine (R-PIA). After incubation, samples were filtered through glass fiber filters (Schleicher and Schuell #32) and washed three times with 4 ml ice-cold 10 mM TrisoHCl (pH 7.4). Radioactivity retained on the filters were counted using a Beckman LS6800 scintillation counter (Beckman Instruments, Palo Alto, Calif.). […] A LIGAND computer program was used for data analysis and curve fitting (Munson & Rodband, 1980, Anal. Biochem. 107: 220-225).
# The A3 receptor was then characterized using competition assays between [^125 I]APNEA A3 receptor binding versus a series of other adenosine receptor ligands. Labeled APNEA was present in these assays at 0.5 nM; unlabled competitors were present at varying concentrations as shown in FIG. 4A.
# A3 adenosine receptor [2] = biological target: T1, A3 adenosine receptor; assay: cell-based; type: cell-based; details: for effect on forskolin-stimulated cAMP: 100 μM ATP or ADP; for inhibitory effect of R-PIA and NECA on forskolin-stimulated cAMP production after pertussis toxin pretreatment: 100 ng/ml pertussis toxin, 18 hours
# Procedure: The concentrations of adenosine agonists used are 100 nM and the concentration of forskolin is 1 μM. Values are obtained from triplicate plates and shown as mean ±S.E.
# The cell were not or pretreated with 100 ng/ml pertussis toxin for 18 hours. The concentration of forskolin and adenosine agonists used are as in FIG. 5.
# It is known that the A 1 adenosine receptor inhibits adenylate cyclase activity and the A2 adenosine receptor stimulates adenylate cyclase respectively (Stiles, ibid.; Williams, ibid.).
# Cells were grown to about 80% confluence in 150 mm dishes, washed twice with Ca^++ and Mg^++ -free PBS buffer and detached from plates with PBS buffer containing 0.02% EDTA. Cells were collected by centrifugation at 800 rpm (xx g) for 10 min at 4° C. and resuspended in an appropriate volume of KRH buffer [140 mM NaCl, 5 mM KCl , 2 mM CaCl2, 1.2 mM MgSO4, 1.2 mM KH2 PO4, 6 mM glucose, 25 mM Hepes-NaOH (pH 7.4)]. The cells were washed once with KRH buffer and resuspended in KRH buffer at a concentration of 10^7 cells/ml. Each of 100 μl aliquots of this cell suspension were added to a glass tube containing 100 μl KRH+200 μM Ro 20-1724 and incubated at 37° C. for 10 min. Prewarmed 200 μl KRH containing 200 μm Ro 20-1724 and test drugs were then added to the cells and mixed. After incubation at 37° C. for 20 min, 400 μl 10.5 mM NaAc (pH 6.2) were added and the glass tubes transferred to a boiling water bath. The incubated cell suspension were boiled for 20 min, and the tubes were then cooled to room temperature and centrifuged at 3000 rpm (xx g) for 15 min.
# For experiments using pertussis toxin pretreatment, aseptic pertussis toxin (Sigma Chemical Co., St. Louis, Mo.) was dissolved in sterile water and added to the medium to a final concentration of 100 ng/ml. Toxin treatment was maintained for approximately 18 hours. The dishes were rinsed once with media immediately prior to the addition of adenosine receptor ligands and processed as described above.
# A3 adenosine receptor [3] = biological target: T1, A3 adenosine receptor; assay: Direct radioligand binding / Scatchard analysis, stably transfected CHO cell membranes; details: for specific, high affinity binding to the A3 receptor: radiolabeled ligands
# Text: FIG. 3 illustrates a Scatchard plot of radioligand binding assays for the A3 adenosine receptor performed with the adenosine radioligand [^125 I]APEA and membrane preparations from stably transfected CHO cells.
# The entire coding region of the A3 cDNA insert from R226 was excised from pGem226 and subcloned into either the HindIII/XbaI sites of an RC-RSV expression vector (Invitrogene, San Diego, Calif.) or the HindIII/SmaI sites of pBC12BI (Cullen, 1987, Meth. Enzym. 152: 684-704). The resulting plasmids were called Rc-RSV226 and pBC226 respectively. For transient expression in COS-7 cells, pBC226 plasmid DNA was prepared in large-scale through one cycle of CsCl gradient ultracentrifugation and 45 μg pBC226 DNA were transfected into each 150mm dish of COS-7 cells according to the method of Chen and Okayama (1987, Molec. Cell Biol. 7: 2745-2752). For stable expression in CHO cells, 1 μg Rc-RSV226 plasmid DNA isolated from a small-scale preparation was purified using the Prep-A-Gene kit (Bio-Rad) and transfected into CHO cells by the CaPO4 method (Graham and van der Eb, 1973, Virol. 52: 456-463). After transfection, cells were cultured in DMEM (COS-7 cells) or F-12 (CHO cells) media supplemented with 10% fetal calf serum in a 3% CO2 atmosphere at 37° C. For stable transfection, selection was performed with neomycin (G418; SOURCE) at a concentration of 700 μg/ml; selection was started 72 hr after transfection and continued for 3 weeks. Cell colonies were screened for expression of the A3 adenosine receptor from the R226 expression vectors described herein by Northern blot hybridization of total cellular RNA with random-primed PCR226 probe (Maniatis et al., ibid.).
# as §1
# Radioligand binding assays were carried out in duplicate in 500 μl of a solution containing (at final concentrations) 50 mM Tris-HCl (pH 7.4), 5 mM MgCl2, 1 mM EDTA, 0.025 % ascorbic acid, radioligands, and appropriate drugs. […] ([aH]XAC), [^3 H]-labeled 2-[4-(2-[(4-aminophenyl)methylcarbobylamino]ethylaminocarbonyl)ethyl)phenyl]ethylamino-5'-N-ethylcarboxamidoadenosine ([^3 H]PAPA-APEC), and [^3 H]-labeled [2-(4-(2-carboxyethyl)phenylethyamino)5'-N-ethylcarboxamidoadenosine ([^3 H]CGS21680). Receptor binding was initiated by the addition of membrane preparations in an amount equivalent to 20-100 μg protein, and carried out at 37° C. for 1 hr.
compound,measurement,setting,value
Nc1ncnc2c1ncn2[C@H]1C[C@H](O)[C@@H](CO)O1 [2-deoxyadenosine],inhibition at 1000 µM,A3 adenosine receptor [1]; 1 mM,< 20%
CSc1nc(N)c2ncn([C@@H]3O[C@H](COP(=O)(O)O)[C@@H](O)[C@H]3O)c2n1 [2-methyl-S-AMP],inhibition of [125I]APNEA binding,A3 adenosine receptor [1]; 1 mM,< 20%
Nc1ncnc2c1ncn2[C@@H]1O[C@H](COP(=O)(O)OP(=O)(O)O)[C@@H](O)[C@H]1O [ADP],effect on forskolin-stimulated cAMP,A3 adenosine receptor [2],had no effect
same,inhibition at 100 µM,A3 adenosine receptor [1]; 100 μM,25%
same,pharmacological profile of inhibition of [125I]APNEA binding,A3 adenosine receptor [1],R-PIA=NECA>S-PIA>adenosine>ATP=ADP
Nc1ncnc2c1ncn2[C@@H]1O[C@H](COP(=O)(O)OP(=O)(O)CP(=O)(O)O)[C@@H](O)[C@H]1O [AMP-PCP],inhibition at 1000 µM,A3 adenosine receptor [1],< 20%
"Nc1ccc(CCNc2ncnc3c2ncn3[C@@H]2O[C@H](CO)[C@@H](O)[C@H]2O)cc1I [APNEA, N^6-2-(4-amino-3-iodo-phenyl) ethyladenosine]",saturable binding (Scatchard plot),"A3 adenosine receptor [3]; [125I]APNEA, stably transfected CHO membranes",225 fmol/mg
same,Kd,"A3 adenosine receptor [3]; [125I]APNEA, stably transfected CHO membranes, read-out: Kd (Scatchard plot analysis)",0.0155 ± 0.0024 µM
same,"affinity at A3 compared with other, well-characterized A1 receptors","A3 adenosine receptor [3]; comparison with literature A1 receptors (Stiles et al., 1985)",about ten-fold lower
same,"specific, high affinity binding to the A3 receptor",A3 adenosine receptor [3]; stably transfected CHO membranes,saturable and high affinity binding
same,"specific, high affinity binding to the A3 receptor","A3 adenosine receptor [3]; stably transfected CHO membranes, listed as [^125 I]APNEA","only adenosine receptor ligand to show specific, high affinity binding to the A3 receptor"
Nc1ncnc2c1ncn2[C@@H]1O[C@H](COP(=O)(O)OP(=O)(O)OP(=O)(O)O)[C@@H](O)[C@H]1O [ATP],effect on forskolin-stimulated cAMP,A3 adenosine receptor [2],had no effect
same,pharmacological profile of inhibition of [125I]APNEA binding,A3 adenosine receptor [1],R-PIA=NECA>S-PIA>adenosine>ATP=ADP
same,inhibition at 100 µM,A3 adenosine receptor [1],50%
Nc1ncnc2c1ncn2[C@@H]1O[C@H](COP(=O)(O)OP(=O)(O)NP(=O)(O)O)[C@@H](O)[C@H]1O [App(NH)p],inhibition at 1000 µM,A3 adenosine receptor [1]; 1 mM,< 20%
Nc1nc2c(ncn2[C@@H]2O[C@H](COP(=O)(O)OP(=O)(O)NP(=O)(O)O)[C@@H](O)[C@H]2O)c(=O)[nH]1 [Gpp(NH)p],competition for labeled APNEA binding,"A3 adenosine receptor [1]; Gpp(NH)p, varying concentrations",60-70%
same,IC50,A3 adenosine receptor [1]; Table I and text,1 µM
CC(C)Cn1c(=O)n(C)c(=O)c2[nH]cnc21 [IBMX],ability to compete with [125I]APNEA for A3 receptor binding,A3 adenosine receptor [1]; 100 μM,none of the methylxanthines tested were capable of competing with labeled APNEA
C[C@H](Cc1ccccc1)Nc1ncnc2c1ncn2[C@@H]1O[C@H](CO)[C@@H](O)[C@H]1O [R-PIA],inhibitory effect of R-PIA and NECA on forskolin-stimulated cAMP production after pertussis toxin pretreatment,A3 adenosine receptor [2],almost completely abolished
same,inhibition of forskolin-stimulated cAMP accumulation,"A3 adenosine receptor [2]; 1 μM forskolin, 100 nM agonist",20-50%
same,EC50,A3 adenosine receptor [2]; Table II,0.018 ± 0.0056 µM
same,IC50,A3 adenosine receptor [1]; Table I,0.063 ± 0.019 µM
same,pharmacological profile of inhibition of [125I]APNEA binding,A3 adenosine receptor [1],R-PIA=NECA>S-PIA>adenosine>ATP=ADP
C[C@@H](Cc1ccccc1)Nc1ncnc2c1ncn2[C@@H]1O[C@H](CO)[C@@H](O)[C@H]1O [S-PIA],IC50,A3 adenosine receptor [1]; Table I,1.14 ± 0.49 µM
same,pharmacological profile of inhibition of [125I]APNEA binding,A3 adenosine receptor [1],R-PIA=NECA>S-PIA>adenosine>ATP=ADP
O=c1ccn([C@@H]2O[C@H](COP(=O)(O)OP(=O)(O)OP(=O)(O)O)[C@@H](O)[C@H]2O)c(=O)[nH]1 [UTP],inhibition at 1000 µM,A3 adenosine receptor [1]; 1 mM,< 20%
C[N+](C)(C)CCOC(N)=O [carbacol],ability to compete with [125I]APNEA for A3 receptor binding,A3 adenosine receptor [1]; 100 μM,failed to compete with labeled APNEA
NCCc1ccc(O)c(O)c1 [dopamine],ability to compete with [125I]APNEA for A3 receptor binding,A3 adenosine receptor [1]; 100 μM,failed to compete with labeled APNEA
CC(C)NCC(O)c1ccc(O)c(O)c1 (centres unmarked) [isoproterenol],ability to compete with [125I]APNEA for A3 receptor binding,A3 adenosine receptor [1]; 100 μM,failed to compete with labeled APNEA
Cc1ccc(N(CC2=NCCN2)c2cccc(O)c2)cc1 [phentoamine],ability to compete with [125I]APNEA for A3 receptor binding,A3 adenosine receptor [1]; 100 μM,failed to compete with labeled APNEA
NCCc1c[nH]c2ccc(O)cc12 [serotonin],ability to compete with [125I]APNEA for A3 receptor binding,A3 adenosine receptor [1]; 100 μM,failed to compete with labeled APNEA
pertussis toxin,inhibitory effect of R-PIA and NECA on forskolin-stimulated cAMP production after pertussis toxin pretreatment,A3 adenosine receptor [2],almost completely abolished
